These results are taken from publication PMC5460016, “Inhibition of gelatinase B/MMP-9 does not attenuate colitis in murine models of inflammatory bowel disease” (Nature Communications, 2017).

For orientation: IC50 means the concentration needed to halve the response being measured.

The conditions of data set [1]: competitive ELISA, plasma of DSS-treated mice, all three administration schemes. The procedure: To ensure that therapeutic levels of peptide inhibitors A and B were attained during all three administration schemes, plasma levels were measured with competitive ELISAs as described previously.
Supplementary figure 8: Levels of peptide inhibitors A and B in plasma of DSS-treated mice at time of sacrifice. (a) Plasma levels of peptide inhibitor A measured with ELISA in DSS-treated mice that received either peptide inhibitor A (n=19) or saline (n=9) injections for all three different administration schemes (therapeutic, prophylactic and continuous).
(b) Similar ELISA analyses […]
were performed for detection of peptide inhibitor B in plasma of DSS-treated mice (n=19). This […]
similar as in Figures 9 and 10. Box plots are shown with 5-95 percentiles.
(1 picture or pasted object on this page, not shown here)

Data set [2] relates to C57BL/6J mice with acute DSS-induced colitis. The experiment in a line: Treatment of acute DSS-induced colitis with peptide inhibitors. The note with it: for severity of intestinal inflammation by histopathological analysis (histological inflammation and activity scores): all three administration schemes (therapeutic, prophylactic, osmotic pump); for body weight loss at time of killing: Mann-Whitney U.
Description: Acute and chronic dextran sodium sulphate (DSS) colitis were induced as described previously[13][39]. Acute colitis was induced in 8–10 weeks old male and female mice by oral administration of 2–3% DSS (35–50 kDa; MP Biomedicals, Illkirch, France) in the drinking water during 7 days followed by 2–3 days on normal drinking water. All mice were killed at day 9 (Fig. 1a). […] Control mice (WT and MMP-9^−/−) received normal drinking water throughout the duration of the experiment. The body weight of the mice was monitored daily or every other day in case of the acute model, whereas in the chronic model, body weight was followed every 3–4 days. Of importance, WT and MMP-9^−/− mice were co-housed (maximally 5 mice per cage) during the experiments ensuring identical environmental conditions as well as controlling for cage-related effects (for example, coprophagia and intake of food and (DSS-supplemented) drinking water). Both the acute and chronic DSS experiments were repeated three times whereby results could be replicated each time and in total 79 mice were used in the acute models and 35 mice in the chronic models. The number of mice needed was estimated based on previous experience[13] and included at least 5 mice per group to ensure adequate power of detection. […] These mice were excluded from further analyses. […] No randomization was applied before start of the experiments.
Animals were euthanized with sodium pentobarbital (Nembutal, Ovation Pharmaceuticals Inc. Deerfield, USA). The DAI was calculated based on three parameters: loss of body weight (one point for each 5% loss of body weight), consistency of stools (normal=0, soft=2, liquid=4) and presence of gross blood in stools (0=none, 1=present)[13][39]. The colon was isolated, weighted and its length measured from the ileocecal junction to the anus. […] The macroscopic damage score was calculated based on extent of inflammation along the colon (in cm, multiplied by 2 if severe), colonic mesenterial adhesion (0=none, 1=mild, 2=severe) and colonic hyperaemia (0=none and 1=present)[13][39].
Acute colitis was induced in male and female mice via administration of 2% DSS in the drinking water for 7 days followed by 2–4 days on normal drinking water.

The test system of a further data set is TACE. The note with it: Supplementary table 2; no method in this paper; known effects; read-out: IC50 towards TACE; cited from earlier work. The source says:
(§1) page 11: Supplementary table 2: IC50 values of peptide inhibitors A and B towards MMP -3, -8, -9 and TACE (μM). Name Peptide sequences† MMP-3 MMP-8 MMP-9 TACE Peptide inhibitor […] No inhibition 17.6 12.5 7.0 (CPU 1) Peptide inhibitor […] 7.0 0.036 0.16 15 (CPU 2) † Peptide sequences are in one-letter codes for amino acids. Pyr stands for pyridylalanine. Supplementary table 3: Primer sequences used for qRT-PCR analyses. Gene Forward primer Reverse primer Probe Mmp3 [NT] Mmp8 ...

The next data set concerns MMP-8. The note with it: Supplementary table 2; no method in this paper; known effects; read-out: IC50 towards MMP-8; cited from earlier work.
Description: as §1

A further data set concerns MMP-3. The following applies: Supplementary table 2, no method in this paper, known effects, cited from earlier work.
Description: as §1

The next data set concerns MMP-9. The following applies: Supplementary table 2; no method in this paper; known effects; read-out: IC50 towards MMP-9; cited from earlier work.
Description: as §1

The subject of data set [3] is Mmp3, Mmp8, Mmp9 mRNA in colonic mouse tissue. The experiment in a line: Colonic mRNA expression of Mmps (quantitative RT-PCR) after peptide inhibitor administration. It counts as in vivo. The following applies: DSS mice. The source says:
Figure 10 Relative mRNA expression of specific Mmps and Tace after administration of peptide MMP inhibitors. Relative mRNA expression measured in colonic mouse tissue after a therapeutic injection scheme (n=16) (a), a prophylactic injection scheme (n=23) (b) and continuous osmotic pump delivery (n=22) (c) of peptide inhibitors A and B. Expression levels were normalized to the control condition (water+saline) and 18S with the use of the 2-delta delta CT method. Mean values with s.e.m. are shown. Statistical analyses were performed with Mann–Whitney U tests (*P<0.05, **P≤0.01; NS, not significant). Colour codes are similar as in Figs 8 and 9.
Snap-frozen mouse colonic fragments were mechanically homogenized with the use of Precellys 24 homogenizer (VWR, Leuven, Belgium). Total RNA was extracted according to the manufacturer's guidelines (RNeasy Mini kit, Qiagen, Hilden, Germany, #74104) and quantified with the use of a Nanodrop ND-1000 Spectrophotometer (Isogen Life Science, Temse, Belgium). cDNA was synthesized with the use of High-Capacity cDNA Reverse Transcription Kit (Applied Biosystems, Foster City, CA, USA). Mmp3, Mmp8, Mmp9 and Tace mRNA levels were analysed in duplicate on 25 ng cDNA by quantitative RT-PCR with the use of TaqMan Universal PCR Master Mix from Applied Biosystems and primer and probe sets from Integrated DNA Technologies (Leuven, Belgium; Supplementary Table 3). Data were normalized to 18S ribosomal RNA levels.

[4] abbreviates: continuous osmotic pump delivery, DSS mice, versus saline.
Where [5] appears, read: prophylactic scheme: daily i.p. 250 μg from day 1, 2% DSS mice, versus saline.
Where [6] appears, read: therapeutic or prophylactic schemes (daily i.p. 250 μg), DSS mice.
The mark [7] stands for this setting: therapeutic scheme: daily i.p. 250 μg from day 6, 2% DSS mice, versus saline.

“P(Pyr)CBRGE-GGGG-IVRRADRAAVP [Peptide inhibitor A]”: the “plasma levels of peptide inhibitor at time of sacrifice” value in data set [1] is given as “inhibitory plasma levels were indeed reached”. In addition, the “severity of intestinal inflammation by histopathological analysis (histological inflammation and activity scores)” value in data set [2] (DSS mice) was “did not observe a significant effect”. Besides, the colon length entry in data set [2] (continuous osmotic pump delivery, DSS mice, versus peptide inhibitor B or saline) is reported as “significantly longer”. In addition, the macroscopic damage score result in data set [2] (setting [4]) is listed as “lower macroscopic damage score”; in data set [2] (setting [6]) it was “not altered”. Besides, the “other colonic measurements (colon weight, colon/body weight ratio and colon weight/length ratio)” value in data set [2] (setting [4]) was “not significantly different”. Also, the body weight loss result in data set [2] (continuous s.c. osmotic pump delivery, 30 mg kg−1 per day, DSS mice, versus peptide inhibitor B and saline) was “mild protection with lower loss of body weight”; in data set [2] (setting [5]), “no differences were observed”. For the same substance, the “disease activity index (DAI)” value in data set [2] (continuous s.c. osmotic pump delivery, 30 mg kg−1 per day, DSS mice, versus peptide inhibitor B or saline) is on record as “significantly lower DAI”; in data set [2] (setting [5]), “not significantly different”; in data set [2] (setting [7]), “no difference was observed”. In data set [2] (setting [7]), the “body weight loss at time of killing” value is given as “no difference in body weight loss”. Besides, the IC50 in the data set with TACE was 7 µM; with MMP-8, 17.6 µM; in the data set on MMP-9 it was 12.5 µM. In the data set on MMP-3, the “IC50 towards MMP-3” value is given as “No inhibition”.

On to “IVRRADRAAVP-GGGG-P(Pyr)CBRGE [Peptide inhibitor B]”, for which the “plasma levels of peptide inhibitor at time of sacrifice” value in data set [1] is “inhibitory plasma levels were indeed reached”. In addition, the “severity of intestinal inflammation by histopathological analysis (histological inflammation and activity scores)” value in data set [2] (DSS mice) is given as “did not observe a significant effect”. Moreover, the “other colonic measurements (colon weight, colon/body weight ratio and colon weight/length ratio)” value in data set [2] (setting [4]) is recorded as “not significantly different”. Further, the body weight loss entry in data set [2] (setting [5]) is “no differences were observed”. Besides, the “disease activity index (DAI)” value in data set [2] (setting [5]) is given as “not significantly different”; in data set [2] (setting [7]), “higher”. Besides, in data set [2] (setting [6]), the macroscopic damage score result is recorded as “not altered”. The “body weight loss at time of killing” value in data set [2] (setting [7]) is “significantly more body weight loss”. In data set [3] (continuous osmotic pump delivery, compared to saline), the “colonic Mmp8 and Mmp3 mRNA expression” value was “significantly higher”. Moreover, the “colonic Mmp9 mRNA expression” value in data set [3] (continuous osmotic pump delivery, compared with peptide inhibitor A or saline) is on record as “significantly increased”. Besides, the “colonic expression of Mmp9 mRNA” value in data set [3] (prophylactic scheme, compared to saline, qRT-PCR normalized to 18S) is “significantly increased expression of Mmp9”. Further, in data set [3] (therapeutic scheme, compared to peptide inhibitor A or saline, qRT-PCR normalized to 18S), the “colonic expression of Mmp3, Mmp8 and Mmp9 mRNA” value is “appeared to be higher”. In addition, the half-inhibitory concentration (IC50) with TACE was 15 µM; in the data set with MMP-8, 0.036 µM; in the data set with MMP-3 (read-out: IC50 towards MMP-3) it was 7 µM; with MMP-9, 0.16 µM.
